Experimental data taken from PubChem BioAssay AID1745844 (Carcinogenic Potency Database (CPDB), 2022).
Activity calls are given as the source filed them. No rule for the calls is given here.

System: rodent lifetime carcinogenesis bioassay, tumor incidence TD50
Assay: carcinogenic potency in animals, long-term in vivo studies, CPDB compilation (AID 1745844)

O=[N+]([O-])c1ccc2c3c(cccc13)CC2
TD50 (hamster, strain Syrian Golden, females, in feed, site: bile duct, lesion: cholangioma, dosed 26 weeks, study length 71 weeks): 354 mg/kg/day
TD50 (mouse, strain B6C3F1, females, in feed, site: any site (literature study), lesion: several types, types named in the paper, dosed 78 weeks, study length 96 weeks): 90.4 mg/kg/day
TD50 (mouse, strain B6C3F1, females, in feed, site: liver + ovary, lesion: hepatocellular carcinoma + granulosa-cell tumor + luteoma + tubular adenoma, dosed 78 weeks, study length 96 weeks): 45.3 mg/kg/day
TD50 (mouse, strain B6C3F1, females, in feed, site: liver, lesion: hepatocellular adenoma + hepatocellular carcinoma + neoplastic nodule, dosed 78 weeks, study length 96 weeks): 45.8 mg/kg/day
TD50 (mouse, strain B6C3F1, females, in feed, site: liver, lesion: hepatocellular carcinoma, dosed 78 weeks, study length 96 weeks): 45.8 mg/kg/day
TD50 (mouse, strain B6C3F1, females, in feed, site: lung, lesion: alveolar/bronchiolar adenoma + alveolar/bronchiolar carcinoma, dosed 78 weeks, study length 96 weeks): 1320 mg/kg/day
TD50 (mouse, strain B6C3F1, females, in feed, site: ovary, lesion: granulosa-cell tumor + luteoma + tubular adenoma, dosed 78 weeks, study length 96 weeks): 217 mg/kg/day
TD50 (mouse, strain B6C3F1, females, in feed, site: ovary, lesion: tubular adenoma, dosed 78 weeks, study length 96 weeks): 395 mg/kg/day
carcinogen call (mouse, strain B6C3F1, males, in feed, site: any site (literature study), lesion: several types, types named in the paper, dosed 78 weeks, study length 95 weeks): negative (inactive)
TD50 (rat, strain Fischer 344, females, in feed, site: any site (literature study), lesion: several types, types named in the paper, dosed 78 weeks, study length 101 weeks): 6.44 mg/kg/day
TD50 (rat, strain Fischer 344, females, in feed, site: clitoral gland + ear canal + lung + mammary gland, lesion: carcinoma, NOS + carcinosarcoma + ceruminous carcinoma + squamous-cell carcinoma + alveolar/bronchiolar adenoma + alveolar/bronchi, dosed 78 weeks, study length 101 weeks): 5.98 mg/kg/day
TD50 (rat, strain Fischer 344, females, in feed, site: clitoral gland, lesion: carcinoma, NOS, dosed 78 weeks, study length 101 weeks): 52.2 mg/kg/day
TD50 (rat, strain Fischer 344, females, in feed, site: ear canal, lesion: carcinosarcoma + ceruminous carcinoma + squamous-cell carcinoma, dosed 78 weeks, study length 101 weeks): 14.9 mg/kg/day
TD50 (rat, strain Fischer 344, females, in feed, site: ear canal, lesion: ceruminous carcinoma, dosed 78 weeks, study length 101 weeks): 17.4 mg/kg/day
TD50 (rat, strain Fischer 344, females, in feed, site: ear canal, lesion: squamous-cell carcinoma, dosed 78 weeks, study length 101 weeks): 90.5 mg/kg/day
TD50 (rat, strain Fischer 344, females, in feed, site: lung, lesion: alveolar/bronchiolar adenoma + alveolar/bronchiolar carcinoma, dosed 78 weeks, study length 101 weeks): 9.63 mg/kg/day
TD50 (rat, strain Fischer 344, females, in feed, site: mammary gland, lesion: adenocarcinoma, NOS + papillary cystadenocarcinoma, NOS, dosed 78 weeks, study length 101 weeks): 77.9 mg/kg/day
TD50 (rat, strain Fischer 344, females, in feed, site: mammary gland, lesion: adenocarcinoma, NOS, dosed 78 weeks, study length 101 weeks): 81.7 mg/kg/day
TD50 (rat, strain Fischer 344, males, in feed, site: any site (literature study), lesion: several types, types named in the paper, dosed 74 weeks, study length 101 weeks): 5.58 mg/kg/day
TD50 (rat, strain Fischer 344, males, in feed, site: ear canal + lung, lesion: ceruminous carcinoma + squamous-cell carcinoma + alveolar/bronchiolar adenoma + alveolar/bronchiolar carcinoma, dosed 74 weeks, study length 101 weeks): 6.45 mg/kg/day
TD50 (rat, strain Fischer 344, males, in feed, site: ear canal, lesion: ceruminous carcinoma + squamous-cell carcinoma, dosed 74 weeks, study length 101 weeks): 7.88 mg/kg/day
TD50 (rat, strain Fischer 344, males, in feed, site: ear canal, lesion: ceruminous carcinoma, dosed 74 weeks, study length 101 weeks): 8.92 mg/kg/day
TD50 (rat, strain Fischer 344, males, in feed, site: ear canal, lesion: squamous-cell carcinoma, dosed 74 weeks, study length 101 weeks): 68.2 mg/kg/day
TD50 (rat, strain Fischer 344, males, in feed, site: kidney, lesion: tubular-cell adenoma + tubular-cell adenocarcinoma, dosed 74 weeks, study length 101 weeks): 42.9 mg/kg/day
TD50 (rat, strain Fischer 344, males, in feed, site: liver, lesion: hepatocellular adenoma + hepatocellular carcinoma + neoplastic nodule, dosed 74 weeks, study length 101 weeks): 71.4 mg/kg/day
TD50 (rat, strain Fischer 344, males, in feed, site: lung, lesion: alveolar/bronchiolar adenoma + alveolar/bronchiolar carcinoma, dosed 74 weeks, study length 101 weeks): 29.9 mg/kg/day
TD50 (rat, strain Fischer 344, males, in feed, site: lung, lesion: alveolar/bronchiolar carcinoma, dosed 74 weeks, study length 101 weeks): 35.1 mg/kg/day
TD50 (rat, strain Fischer 344, males, in feed, site: thyroid gland, lesion: follicular-cell adenoma + papillary adenoma, dosed 74 weeks, study length 101 weeks): 58.5 mg/kg/day
TD50 (rat, strain Fischer 344, males, in feed, site: thyroid gland, lesion: follicular-cell carcinoma + papillary adenocarcinoma, dosed 74 weeks, study length 101 weeks): 37.7 mg/kg/day

CC(C)C/C=N/N(C)C=O
TD50 (mouse, strain Swiss albino, females, by gavage, site: gall bladder, lesion: adenocarcinoma, dosed 53 weeks, study length 127 weeks): 151 mg/kg/day
TD50 (mouse, strain Swiss albino, females, by gavage, site: gall bladder, lesion: adenoma, dosed 53 weeks, study length 127 weeks): 36.5 mg/kg/day
TD50 (mouse, strain Swiss albino, females, by gavage, site: gall bladder, lesion: several types, types named in the paper, dosed 53 weeks, study length 127 weeks): 28.9 mg/kg/day
TD50 (mouse, strain Swiss albino, females, by gavage, site: liver, lesion: hepatocellular carcinoma, dosed 53 weeks, study length 127 weeks): 74.6 mg/kg/day
TD50 (mouse, strain Swiss albino, females, by gavage, site: liver, lesion: hepatoma, dosed 53 weeks, study length 127 weeks): 9.27 mg/kg/day
TD50 (mouse, strain Swiss albino, females, by gavage, site: liver, lesion: several types, types named in the paper, dosed 53 weeks, study length 127 weeks): 7.9 mg/kg/day
TD50 (mouse, strain Swiss albino, females, by gavage, site: lung, lesion: adenocarcinoma, dosed 53 weeks, study length 127 weeks): 8.7 mg/kg/day
TD50 (mouse, strain Swiss albino, females, by gavage, site: lung, lesion: adenoma, dosed 53 weeks, study length 127 weeks): 2.39 mg/kg/day
TD50 (mouse, strain Swiss albino, females, by gavage, site: lung, lesion: several types, types named in the paper, dosed 53 weeks, study length 127 weeks): 1.99 mg/kg/day
TD50 (mouse, strain Swiss albino, males, by gavage, site: gall bladder, lesion: adenoma, dosed 53 weeks, study length 119 weeks): 46.1 mg/kg/day
TD50 (mouse, strain Swiss albino, males, by gavage, site: liver, lesion: hepatocellular carcinoma, dosed 53 weeks, study length 119 weeks): 34.2 mg/kg/day
TD50 (mouse, strain Swiss albino, males, by gavage, site: liver, lesion: hepatoma, dosed 53 weeks, study length 119 weeks): 8 mg/kg/day
TD50 (mouse, strain Swiss albino, males, by gavage, site: liver, lesion: several types, types named in the paper, dosed 53 weeks, study length 119 weeks): 5.97 mg/kg/day
TD50 (mouse, strain Swiss albino, males, by gavage, site: lung, lesion: adenocarcinoma, dosed 53 weeks, study length 119 weeks): 10.7 mg/kg/day
TD50 (mouse, strain Swiss albino, males, by gavage, site: lung, lesion: adenoma, dosed 53 weeks, study length 119 weeks): 3.3 mg/kg/day
TD50 (mouse, strain Swiss albino, males, by gavage, site: lung, lesion: several types, types named in the paper, dosed 53 weeks, study length 119 weeks): 2.53 mg/kg/day
TD50 (mouse, strain Swiss albino, males, by gavage, site: preputial gland, lesion: several types, types named in the paper, dosed 53 weeks, study length 119 weeks): 4.36 mg/kg/day
TD50 (mouse, strain Swiss albino, males, by gavage, site: preputial gland, lesion: squamous-cell carcinoma, dosed 53 weeks, study length 119 weeks): 5.59 mg/kg/day
TD50 (mouse, strain Swiss albino, males, by gavage, site: preputial gland, lesion: squamous-cell papilloma, dosed 53 weeks, study length 119 weeks): 34.2 mg/kg/day

CCCCCCCCCCCCCCCC(=O)OC/C=C(C)/C=C/C=C(C)/C=C/C1=C(C)CCCC1(C)C
carcinogen call (mouse, strain ICR/Jcl, males, in drinking water, site: forestomach, lesion: one or several types, types not named, dosed 66 weeks, study length 66 weeks): negative (inactive)

Cc1ccc(S(=O)(=O)OCCN(C)N=O)cc1
TD50 (rat, strain Fischer 344, females, by gavage, site: liver, lesion: hemangiosarcoma, dosed 121 weeks, study length 121 weeks): 12.8 mg/kg/day
TD50 (rat, strain Fischer 344, females, by gavage, site: liver, lesion: hepatocellular carcinoma, dosed 121 weeks, study length 121 weeks): 7.55 mg/kg/day
TD50 (rat, strain Fischer 344, females, by gavage, site: liver, lesion: neoplastic nodule, dosed 121 weeks, study length 121 weeks): 22.3 mg/kg/day
TD50 (rat, strain Fischer 344, females, by gavage, site: liver, lesion: several types, types named in the paper, dosed 121 weeks, study length 121 weeks): 3.47 mg/kg/day
TD50 (rat, strain Fischer 344, males, by gavage, site: liver, lesion: hemangiosarcoma, dosed 121 weeks, study length 121 weeks): 11.8 mg/kg/day
TD50 (rat, strain Fischer 344, males, by gavage, site: liver, lesion: hepatocellular carcinoma, dosed 121 weeks, study length 121 weeks): 32.2 mg/kg/day
TD50 (rat, strain Fischer 344, males, by gavage, site: liver, lesion: neoplastic nodule, dosed 121 weeks, study length 121 weeks): 12.6 mg/kg/day
TD50 (rat, strain Fischer 344, males, by gavage, site: liver, lesion: several types, types named in the paper, dosed 121 weeks, study length 121 weeks): 7.79 mg/kg/day
TD50 (rat, strain Fischer 344, males, by gavage, site: pituitary gland, lesion: adenoma, dosed 121 weeks, study length 121 weeks): 11.1 mg/kg/day
TD50 (rat, strain Fischer 344, males, by gavage, site: testis, lesion: interstitial-cell tumor, dosed 121 weeks, study length 121 weeks): 11.1 mg/kg/day

CC(=O)Nc1ccc2c(c1)C(=O)c1ccccc1-2
TD50 (rat, strain Buffalo, females, in feed, site: ear duct, lesion: squamous-cell carcinoma, dosed 86 weeks, study length 86 weeks): 32 mg/kg/day
TD50 (rat, strain Buffalo, females, in feed, site: liver, lesion: hepatoma, dosed 86 weeks, study length 86 weeks): 102 mg/kg/day
TD50 (rat, strain Buffalo, females, in feed, site: mammary gland, lesion: adenocarcinoma, dosed 86 weeks, study length 86 weeks): 6.17 mg/kg/day

CCCCCCCCCCCCCCN(C)N=O
carcinogen call (rat, strain Fischer 344, males, by gavage, site: any site (literature study), lesion: several types, types named in the paper, dosed 30 weeks, study length 102 weeks): positive
TD50 (rat, strain Fischer 344, males, by gavage, site: lung, lesion: adenocarcinoma, dosed 30 weeks, study length 102 weeks): 60.5 mg/kg/day
TD50 (rat, strain Fischer 344, males, by gavage, site: lung, lesion: adenoma, dosed 30 weeks, study length 102 weeks): 29.4 mg/kg/day
carcinogen call (rat, strain Fischer 344, males, by gavage, site: urinary bladder, lesion: transitional-cell carcinoma, dosed 30 weeks, study length 102 weeks): positive

Cc1[nH]cnc1CSCCN=C(NC#N)N(C)N=O
carcinogen call (mouse, strain C57BL/6, females, in drinking water, site: liver, lesion: several types, types named in the paper, dosed 102 weeks, study length 104 weeks): negative (inactive)
carcinogen call (mouse, strain C57BL/6, females, in drinking water, site: lung, lesion: one or several types, types not named, dosed 102 weeks, study length 104 weeks): negative (inactive)
TD50 (rat, strain Fischer 344, females, in drinking water, site: liver, lesion: neoplastic nodule, dosed 106 weeks, study length 131 weeks): 43.3 mg/kg/day (inactive)
TD50 (rat, strain Fischer 344, females, in drinking water, site: pituitary gland, lesion: one or several types, types not named, dosed 106 weeks, study length 131 weeks): 3.6 mg/kg/day (inactive)
TD50 (rat, strain Fischer 344, females, in drinking water, site: thyroid gland, lesion: one or several types, types not named, dosed 106 weeks, study length 131 weeks): 18.8 mg/kg/day (inactive)
carcinogen call (rat, strain Fischer 344, males, in drinking water, site: liver, lesion: neoplastic nodule, dosed 106 weeks, study length 131 weeks): negative (inactive)
carcinogen call (rat, strain Sprague-Dawley, females, by gavage, site: any site (literature study), lesion: malignant tumor, dosed 52 weeks, study length 104 weeks): negative (inactive)
carcinogen call (rat, strain Sprague-Dawley, females, by gavage, site: any site (literature study), lesion: several types, types named in the paper, dosed 52 weeks, study length 104 weeks): negative (inactive)
TD50 (rat, strain Sprague-Dawley, males, by gavage, site: any site (literature study), lesion: malignant tumor, dosed 52 weeks, study length 104 weeks): 4820 mg/kg/day (inactive)
carcinogen call (rat, strain Sprague-Dawley, males, by gavage, site: any site (literature study), lesion: several types, types named in the paper, dosed 52 weeks, study length 104 weeks): negative (inactive)

Cc1ccccc1N=O
TD50 (rat, strain Fischer 344, males, in feed, site: liver, lesion: hepatoma, dosed 72 weeks, study length 93 weeks): 59.2 mg/kg/day
TD50 (rat, strain Fischer 344, males, in feed, site: liver, lesion: several types, types named in the paper, dosed 72 weeks, study length 93 weeks): 50.7 mg/kg/day
TD50 (rat, strain Fischer 344, males, in feed, site: peritoneal cavity, lesion: mesothelioma, dosed 72 weeks, study length 93 weeks): 195 mg/kg/day
TD50 (rat, strain Fischer 344, males, in feed, site: peritoneal cavity, lesion: spindle-cell sarcoma, dosed 72 weeks, study length 93 weeks): 303 mg/kg/day
TD50 (rat, strain Fischer 344, males, in feed, site: skin, lesion: fibroma, dosed 72 weeks, study length 93 weeks): 55.8 mg/kg/day
TD50 (rat, strain Fischer 344, males, in feed, site: spleen, lesion: fibroma, dosed 72 weeks, study length 93 weeks): 87 mg/kg/day
TD50 (rat, strain Fischer 344, males, in feed, site: urinary bladder, lesion: papilloma, dosed 72 weeks, study length 93 weeks): 78.8 mg/kg/day
TD50 (rat, strain Fischer 344, males, in feed, site: urinary bladder, lesion: several types, types named in the paper, dosed 72 weeks, study length 93 weeks): 71.5 mg/kg/day
